IC50 data for 55 molecules are collected here from patent US11612604B2, “Methods of treating cancer with PLK4 inhibitors” (LUDWIG INSTITUTE FOR CANCER RESEARCH LTD, priority 2017, dated 2023).

Where only a bound is given, the exact number is not on record here.

The target of this experiment is T1, PLK4 (Homo sapiens, UniProt O00444).
T1 sequence (O00444 1-970): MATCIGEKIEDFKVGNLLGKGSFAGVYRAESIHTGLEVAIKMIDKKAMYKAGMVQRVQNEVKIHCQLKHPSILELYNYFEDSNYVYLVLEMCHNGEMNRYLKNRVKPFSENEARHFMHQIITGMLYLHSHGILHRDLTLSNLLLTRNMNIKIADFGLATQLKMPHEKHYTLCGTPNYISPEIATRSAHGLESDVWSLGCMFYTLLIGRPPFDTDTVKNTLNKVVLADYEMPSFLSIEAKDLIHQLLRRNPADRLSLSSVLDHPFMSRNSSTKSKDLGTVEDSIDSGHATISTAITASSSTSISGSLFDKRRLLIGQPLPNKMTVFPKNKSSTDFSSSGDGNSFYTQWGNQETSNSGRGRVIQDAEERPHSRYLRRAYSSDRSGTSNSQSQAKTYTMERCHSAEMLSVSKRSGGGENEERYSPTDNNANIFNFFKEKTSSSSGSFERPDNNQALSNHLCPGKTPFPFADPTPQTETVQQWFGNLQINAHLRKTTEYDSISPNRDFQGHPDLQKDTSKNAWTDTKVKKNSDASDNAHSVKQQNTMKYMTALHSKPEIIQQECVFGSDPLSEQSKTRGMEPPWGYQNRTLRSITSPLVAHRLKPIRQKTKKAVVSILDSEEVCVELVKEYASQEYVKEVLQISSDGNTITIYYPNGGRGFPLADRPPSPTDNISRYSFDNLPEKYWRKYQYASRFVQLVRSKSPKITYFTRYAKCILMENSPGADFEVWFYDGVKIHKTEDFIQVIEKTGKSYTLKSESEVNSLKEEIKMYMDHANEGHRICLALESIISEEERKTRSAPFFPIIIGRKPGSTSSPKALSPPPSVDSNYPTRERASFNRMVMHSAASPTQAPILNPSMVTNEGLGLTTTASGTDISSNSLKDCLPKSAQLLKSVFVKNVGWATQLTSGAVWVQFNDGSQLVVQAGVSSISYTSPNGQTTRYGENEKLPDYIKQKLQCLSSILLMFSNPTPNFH
The experiment is described as follows: Activity (IC50) of the Table 1 compounds as PLK4 inhibitors. Format: biochemical. The settings on record: Table 1, IC50 class.
Molecule `COc1c(Nc2cc(C)[nH]n2)nc(Sc2ccc(NC(=O)C3CC3)cc2)nc1N1CCN(C)CC1` yielded an IC50 of less than 100 nM.

The molecule `Cc1cc(Nc2nc(Sc3ccc(NC(=O)C4CC4)cc3)nc(N3CCOCC3)c2C)n[nH]1` gave an IC50 of less than 100 nM. `COc1c(C)nc(Sc2ccc(NC(=O)C3CC3)cc2)nc1Nc1cc(C)[nH]n1` had an IC50 of less than 100 nM. In turn, `Cc1cc(Nc2nc(Sc3ccc(NC(=O)C4CC4)cc3)nc3c2C(C)CC3)n[nH]1` (stereo not shown) gave an IC50 of less than 100 nM. Take `Cc1cc(Nc2nc(Sc3ccc(NC(=O)C4CC4)cc3)nc(N3CCN(C(C)C)CC3)c2C)n[nH]1`: the IC50 is less than 100 nM. The molecule `CC(=O)N1CCN(c2nc(Sc3ccc(NC(=O)C4CC4)cc3)nc(Nc3cc(C)[nH]n3)c2C)CC1` gave an IC50 of less than 100 nM. To `COCCN1CCN(c2nc(Sc3ccc(NC(=O)C4CC4)cc3)nc(Nc3cc(C)[nH]n3)c2C)CC1` belongs less than 100 nM; to `COc1c(Nc2cc(C)[nH]n2)nc(Sc2ccc(NC(=O)C3CCCC3)cc2)nc1N1CCN(C(C)=O)CC1`, less than 100 nM; to `COCCN1CCN(c2nc(Sc3ccc(NC(=O)C4CCCC4)cc3)nc(Nc3cc(C)[nH]n3)c2OC)CC1`, less than 100 nM.

As for `CCOc1c(Nc2cc(C)[nH]n2)nc(Sc2ccc(NC(=O)C3CC3)cc2)nc1N1CCOCC1`, the IC50 was less than 100 nM. With `COc1c(Nc2cc(C)[nH]n2)nc(Sc2ccc(NC(=O)C3CCCC3)cc2)nc1N1CCN(C)CC1` the figure was less than 100 nM; with `COc1c(Nc2cc(C)[nH]n2)nc(Sc2ccc(NC(=O)C3CCCC3)cc2)nc1N1CCNCC1`, less than 100 nM.

For the molecule `COc1c(Nc2cc(C)[nH]n2)nc(Sc2ccc(NC(=O)C3CCCC3)cc2)nc1N1CCN(CCN(C)C)CC1`, the IC50 was less than 100 nM. On to `CCOc1c(Nc2cc(C)[nH]n2)nc(Sc2ccc(NC(=O)C3CC3)cc2)nc1N1CCNCC1`, for which the half-inhibitory concentration (IC50) was less than 100 nM. Molecule `CCOc1c(Nc2cc(C)[nH]n2)nc(Sc2ccc(NC(=O)C3CC3)cc2)nc1N(CC)CC` gave a concentration for half-maximal inhibition (IC50) of less than 100 nM. With `CCOc1c(Nc2cc(C)[nH]n2)nc(Sc2ccc(NC(=O)C3CC3)cc2)nc1N(C)CC` the figure was less than 100 nM; with `CCOc1c(Nc2cc(C)[nH]n2)nc(Sc2ccc(NC(=O)C3CC3)cc2)nc1N(C)C`, less than 100 nM. In turn, `COc1c(Nc2cc(C)[nH]n2)nc(Sc2ccc(NC(=O)C3CC3)cc2)nc1N1CCN(C2CCN(C)CC2)CC1` yielded an IC50 of less than 100 nM. With `COc1c(Nc2cc(C)[nH]n2)nc(Sc2ccc(NC(=O)C3CC3)cc2)nc1N1CCC(C(=O)CN(C)C)CC1` the figure was less than 100 nM. As to `COc1c(Nc2cc(C)[nH]n2)nc(Sc2ccc(NC(=O)C3CC3)cc2)nc1N1CCN(C(=O)CCN(C)C)CC1`, the IC50 is less than 100 nM. In the case of `COCC(=O)N1CCN(c2nc(Sc3ccc(NC(=O)C4CC4)cc3)nc(Nc3cc(C)[nH]n3)c2OC)CC1`, the IC50 was less than 100 nM.

On to `COCCC(=O)N1CCN(c2nc(Sc3ccc(NC(=O)C4CC4)cc3)nc(Nc3cc(C)[nH]n3)c2OC)CC1`, for which the IC50 was less than 100 nM. With `COc1c(Nc2cc(C)[nH]n2)nc(Sc2ccc(NC(=O)C3CC3)cc2)nc1N1CCN(CC2CC2)CC1` the figure was less than 100 nM.

Regarding `CNCCN1CCN(c2nc(Sc3ccc(NC(=O)C4CC4)cc3)nc(Nc3cc(C)[nH]n3)c2OC)CC1`, the IC50 is less than 100 nM. `CCC1CCc2nc(Sc3ccc(NC(=O)C4CC4)cc3)nc(Nc3cc(C)[nH]n3)c21` (stereo not shown) showed an IC50 of less than 100 nM. To `Cc1cc(Nc2nc(Sc3ccc(NC(=O)C4CCC4)cc3)nc(N3CCN(C)CC3)c2C)n[nH]1` belongs less than 100 nM; to `CC(=O)Nc1ccc(Sc2nc(Nc3cc(C)[nH]n3)c(C)c(N3CCN(C)CC3)n2)cc1`, less than 100 nM; to `CCOc1c(Nc2c[nH]c(C)c2)nc(Sc2ccc(NC(=O)C3CCCC3)cc2)nc1N1CCN(C(=O)CCOC)CC1`, 100 to 1000 nM. In turn, `CC(=O)Nc1ccc(Sc2nc(Nc3cc(C)[nH]n3)c(C)c(N3CCN(CCN(C)C)CC3)n2)cc1` showed an IC50 of less than 100 nM.

For `COCCN1CCN(c2nc(Sc3ccc(NC(C)=O)cc3)nc(Nc3cc(C)[nH]n3)c2C)CC1`, the IC50 is less than 100 nM.

Molecule `CC(=O)Nc1ccc(Sc2nc(Nc3cc(C)[nH]n3)c(C)c(N3CCN(C(C)=O)CC3)n2)cc1` showed an IC50 of less than 100 nM.

For `CC(=O)Nc1ccc(Sc2nc(Nc3cc(C)[nH]n3)c(C)c(N3CCNCC3)n2)cc1`, the IC50 was less than 100 nM. In turn, `CC(=O)Nc1ccc(Sc2nc(Nc3cc(C)[nH]n3)c(C)c(N3CCOCC3)n2)cc1` gave an IC50 of less than 100 nM. Molecule `CC(=O)Nc1ccc(Sc2nc(Nc3cc(C)[nH]n3)c(C)c(N3CCN(C4CCN(C)CC4)CC3)n2)cc1` displayed an IC50 of less than 100 nM. In the case of `Cc1cc(Nc2nc(Sc3ccc(NC(=O)C4CCCC4)cc3)nc(N3CCN(CCN(C)C)CC3)c2C)n[nH]1`, the IC50 was less than 100 nM.

Turning to `COCCN1CCN(c2nc(Sc3ccc(NC(=O)C4CCCC4)cc3)nc(Nc3cc(C)[nH]n3)c2C)CC1`, the IC50 is less than 100 nM. To `CC(=O)N1CCN(c2nc(Sc3ccc(NC(=O)C4CCCC4)cc3)nc(Nc3cc(C)[nH]n3)c2C)CC1` belongs less than 100 nM; to `Cc1cc(Nc2nc(Sc3ccc(NC(=O)C4CCCC4)cc3)nc(N3CCNCC3)c2C)n[nH]1`, less than 100 nM. In turn, `Cc1cc(Nc2nc(Sc3ccc(NC(=O)C4CCCC4)cc3)nc(N3CCOCC3)c2C)n[nH]1` displayed an IC50 of less than 100 nM. As for `Cc1cc(Nc2nc(Sc3ccc(NC(=O)C4CCCC4)cc3)nc(N3CCN(C4CCN(C)CC4)CC3)c2C)n[nH]1`, the 50% inhibitory concentration (IC50) was less than 100 nM. The molecule `COc1c(Nc2cc(C)[nH]n2)nc(Sc2ccc(NC(C)=O)cc2)nc1N1CCCCC1` registered an IC50 of less than 100 nM. Consider `CC(=O)Nc1ccc(Sc2nc(Nc3cc(C)[nH]n3)c(C)c(N(C)C(C)C)n2)cc1`, for which the IC50 was less than 100 nM. On to `CC(=O)Nc1ccc(Sc2nc(Nc3cc(C)[nH]n3)c(C)c(N3CCN(C(=O)CCN(C)C)CC3)n2)cc1`, for which the IC50 is less than 100 nM. With `COCC(=O)N1CCN(c2nc(Sc3ccc(NC(C)=O)cc3)nc(Nc3cc(C)[nH]n3)c2C)CC1` the figure was less than 100 nM. In turn, `Cc1cc(Nc2nc(Sc3ccc(NC(=O)C4CCCC4)cc3)nc(N(C)C(C)C)c2C)n[nH]1` gave an IC50 of less than 100 nM. With `COCC(=O)N1CCN(c2nc(Sc3ccc(NC(=O)C4CCCC4)cc3)nc(Nc3cc(C)[nH]n3)c2C)CC1` the figure was less than 100 nM; with `Cc1cc(Nc2nc(Sc3ccc(NC(=O)C4CCCC4)cc3)nc(N3CCCCC3)c2C)n[nH]1`, less than 100 nM; with `CCN(C)c1nc(Sc2ccc(NC(=O)C3CCCC3)cc2)nc(Nc2cc(C)[nH]n2)c1C`, less than 100 nM. With `Cc1cc(Nc2nc(Sc3ccc(NC(=O)C4CCCC4)cc3)nc(N(C)C)c2C)n[nH]1` the figure was less than 100 nM; with `CC(=O)Nc1ccc(Sc2nc(Nc3cc(C)[nH]n3)c(C)c(N3CCC(O)CC3)n2)cc1`, less than 100 nM; with `COc1c(Nc2cc(C)[nH]n2)nc(Sc2ccc(S(=O)(=O)Cc3cccc(-c4ccccc4)c3)cc2)nc1N1CCN(CCN(C)C)CC1`, less than 100 nM. Regarding `COc1c(Nc2cc(C)[nH]n2)nc(Sc2ccc(S(=O)(=O)Cc3cccc(C(C)=O)c3)cc2)nc1N1CCN(CCN(C)C)CC1`, the IC50 is less than 100 nM. With `COc1c(Nc2cc(C)[nH]n2)nc(Sc2ccc(S(=O)(=O)Cc3cccc([N+](=O)[O-])c3)cc2)nc1N1CCOCC1` the figure was less than 100 nM; with `COc1c(Nc2cc(C)[nH]n2)nc(Sc2ccc(S(=O)(=O)Cc3ccccc3)cc2)nc1N1CCN(Cc2ccccc2)CC1`, less than 100 nM. To `COc1c(Nc2cc(C)[nH]n2)nc(Sc2ccc(S(=O)(=O)Cc3ccccc3)cc2F)nc1N1CCN(CCN(C)C)CC1` belongs less than 100 nM.
